Laboratory results reported in patent US9809583B2 (priority 2014, dated 2017).
Structures can show the parent of a compound that is named as a salt.

What follows are molecules tested against androgen receptor (hAR) (Homo sapiens (Human), UniProt P10275) (assay: Test of transcriptional activity (hAR / ARE-Luc dual-luciferase assay in CHO cells)). Conditions: CHO cells with hAR and ARE-Luc, 24 hours; 10 nM DHT = 100%; read-out: EC50 [nM] (mean ± SE).
Assay type: cell-based
Protocol: In order to examine the transcriptional activity of the agonists of the present invention, the following in-vitro experiment was performed. CHO (Chinese hamster ovary) cell line (ATCC, #CCL-61) was seeded in a 96-well plate at a density of 1.5×10^4 cells/well, and cultured for 24 hours. Then, a plasmid hAR and plasmid ARE-Luc-mixed medium was added thereto. The transfected cell line was treated with 0.1˜10,000 nM of SARM derivatives, and then allowed to react for 24 hours.

Chain of androgen receptor (hAR) (P10275 whole entry): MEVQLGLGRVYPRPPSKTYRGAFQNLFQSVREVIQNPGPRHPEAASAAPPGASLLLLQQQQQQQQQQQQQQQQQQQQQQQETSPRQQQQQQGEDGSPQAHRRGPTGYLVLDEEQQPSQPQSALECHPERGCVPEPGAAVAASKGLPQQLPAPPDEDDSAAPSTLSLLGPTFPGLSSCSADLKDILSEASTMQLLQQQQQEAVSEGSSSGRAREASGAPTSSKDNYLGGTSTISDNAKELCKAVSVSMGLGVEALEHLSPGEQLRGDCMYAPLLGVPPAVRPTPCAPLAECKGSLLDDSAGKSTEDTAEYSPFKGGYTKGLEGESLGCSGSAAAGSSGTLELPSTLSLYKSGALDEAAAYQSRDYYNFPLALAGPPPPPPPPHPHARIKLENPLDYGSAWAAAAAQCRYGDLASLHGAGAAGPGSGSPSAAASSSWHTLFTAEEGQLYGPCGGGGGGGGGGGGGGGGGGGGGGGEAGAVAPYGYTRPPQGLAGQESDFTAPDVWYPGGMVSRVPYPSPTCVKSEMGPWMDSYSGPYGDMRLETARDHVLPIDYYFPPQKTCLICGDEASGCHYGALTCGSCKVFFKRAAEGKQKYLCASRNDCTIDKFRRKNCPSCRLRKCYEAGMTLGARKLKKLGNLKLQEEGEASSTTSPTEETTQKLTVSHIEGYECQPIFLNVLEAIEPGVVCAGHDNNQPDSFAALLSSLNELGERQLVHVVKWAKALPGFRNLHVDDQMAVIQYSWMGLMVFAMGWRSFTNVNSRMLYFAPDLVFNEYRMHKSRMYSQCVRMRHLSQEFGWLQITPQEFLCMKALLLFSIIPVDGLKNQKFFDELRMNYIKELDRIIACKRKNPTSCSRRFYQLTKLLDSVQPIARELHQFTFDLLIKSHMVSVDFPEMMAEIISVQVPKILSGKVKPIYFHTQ

Compound | EC50 [nM]
Cc1cc(N2C[C@@H](COc3ccncc3)O[C@@H]2C(F)(F)F)ccc1[N+](=O)[O-] [Example 69, (2R,5S)-3-(3-methyl-4-nitrophenyl)-5-((pyridin-4-yloxy)methyl)-2-(trifluoromethyl)oxazolidine] | 1.54
Cc1cc(N2C[C@@H](COc3ccc(/C=N/O)cc3)O[C@@H]2C(F)(F)F)ccc1[N+](=O)[O-] [Example 70, (E)-4-(((2R,5S)-3-(3-methyl-4-nitrophenyl)-2-(trifluoromethyl)oxazolidin-5-yl)methoxy)benzaldehyde oxime] | 0.62
N#Cc1ccc(OC[C@@H]2CN(c3ccc([N+](=O)[O-])c(C(F)(F)F)c3)[C@H](C(F)(F)F)O2)cc1 [Example 81, 4-(((2S,5S)-3-(4-nitro-3-(trifluoromethyl)phenyl)-2-(trifluoromethyl)oxazolidin-5-yl)methoxy)benzonitrile] | 59.5
Cc1cc(N2C[C@@H](COc3ccc(C#N)cc3)O[C@H]2C(F)(F)F)ccc1[N+](=O)[O-] [Example 82, 4-(((2S,5S)-3-(3-methyl-4-nitrophenyl)-2-(trifluoromethyl)oxazolidin-5-yl)methoxy)benzonitrile] | 21.1
O=[N+]([O-])c1ccc(N2C[C@@H](COc3ccc(/C=N/O)cc3)O[C@@H]2C(F)(F)F)cc1C(F)(F)F [Example 87, (E)-4-(((2R,5S)-3-(4-nitro-3-(trifluoromethyl)phenyl)-2-(trifluoromethyl)oxazolidin-5-yl)methoxy)benzaldehyde oxime] | 9.22

Same assay, conditions: EC50 [nM] (mean ± SE), CHO cells with hAR and ARE-Luc, 24 hours; 10 nM DHT = 100%

Compound | EC50 [nM]
N#Cc1ccc(N2C[C@@H](COc3ccnc(Cl)c3)O[C@@H]2C(F)(F)F)cc1C(F)(F)F [Example 68, 4-((2R,5S)-5-(((2-chloropyridin-4-yl)oxy)methyl)-2-(trifluoromethyl)oxazolidin-3-yl)-2-(trifluoromethyl)benzonitrile] | 6.06
N#Cc1ccc(OC[C@@H]2CN(c3ccc(C#N)c(Cl)c3)[C@@H](C(F)(F)F)O2)cc1 [Example 71, 2-chloro-4-((2R,5S)-5-((4-cyanophenoxy)methyl)-2-(trifluoromethyl)oxazolidin-3-yl)benzonitrile] | 1.57
N#Cc1ccc(N2C[C@@H](COc3ccncc3)O[C@@H]2C(F)(F)F)cc1Cl [Example 72, 2-chloro-4-((2R,5S)-5-((pyridin-4-yloxy)methyl)-2-(trifluoromethyl)oxazolidin-3-yl)benzonitrile] | 1.03
N#Cc1ccc(OC[C@@H]2CN(c3ccc(C#N)c(Cl)c3)[C@@H](C(F)(F)F)O2)cn1 [Example 73, 5-(((2R,5S)-3-(3-chloro-4-cyanophenyl)-2-(trifluoromethyl)oxazolidin-5-yl)methoxy)picolinonitrile] | 0.991
N#Cc1ccc(N2C[C@@H](COc3ccc(/C=N/O)cc3)O[C@@H]2C(F)(F)F)cc1Cl [Example 74, 2-chloro-4-((2R,5S)-5-((4-((E)-(hydroxyimino)methyl)phenoxy)methyl)-2-(trifluoromethyl)oxazolidin-3-yl)benzonitrile] | 0.658
Cc1c(N2C[C@@H](COc3ccc(C#N)cc3)O[C@@H]2C(F)(F)F)ccc(C#N)c1Cl [Example 75, 2-chloro-4-((2R,5S)-5-((4-cyanophenoxy)methyl)-2-(trifluoromethyl)oxazolidin-3-yl)-3-methylbenzonitrile] | 37
Cc1c(N2C[C@@H](COc3ccncc3)O[C@@H]2C(F)(F)F)ccc(C#N)c1Cl [Example 76, 2-chloro-3-methyl-4-((2R,5S)-5-((pyridin-4-yloxy)methyl)-2-(trifluoromethyl)oxazolidin-3-yl)benzonitrile] | 21.8
Cc1c(N2C[C@@H](COc3ccc(C#N)nc3)O[C@@H]2C(F)(F)F)ccc(C#N)c1Cl [Example 77, 5-(((2R,5S)-3-(3-chloro-4-cyano-2-methylphenyl)-2-(trifluoromethyl)oxazolidin-5-yl)methoxy)picolinonitrile] | 10.6
Cc1c(N2C[C@@H](COc3ccc(/C=N/O)cc3)O[C@@H]2C(F)(F)F)ccc(C#N)c1Cl [Example 78, 2-chloro-4-((2R,5S)-5-((4-((E)-(hydroxyimino)methyl)phenoxy)methyl)-2-(trifluoromethyl)oxazolidin-3-yl)-3-methylbenzonitrile] | 4.91
N#Cc1ccc(N2C[C@@H](COc3ccncc3)O[C@H]2C(F)(F)F)cc1C(F)(F)F [Example 80, 4-((2S,5S)-5-((pyridin-4-yloxy)methyl)-2-(trifluoromethyl)oxazolidin-3-yl)-2-(trifluoromethyl)benzonitrile] | 34
N#Cc1ccc(OC[C@@H]2CN(c3ccc(C#N)c(Cl)c3)[C@H](C(F)(F)F)O2)cc1 [Example 83, 2-chloro-4-((2S,5S)-5-((4-cyanophenoxy)methyl)-2-(trifluoromethyl)oxazolidin-3-yl)benzonitrile] | 29.6
Cc1c(N2C[C@@H](COc3ccc(C#N)cc3)O[C@H]2C(F)(F)F)ccc(C#N)c1Cl [Example 84, 2-chloro-4-((2S,5S)-5-((4-cyanophenoxy)methyl)-2-(trifluoromethyl)oxazolidin-3-yl)-3-methylbenzonitrile] | 1140
CO/N=C/c1ccc(OC[C@@H]2CN(c3ccc(C#N)c(C(F)(F)F)c3)[C@@H](C(F)(F)F)O2)cc1 [Example 85, 4-((2R,5S)-5-((4-((E)-(methoxyimino)methyl)phenoxy)methyl)-2-(trifluoromethyl)oxazolidin-3-yl)-2-(trifluoromethyl)benzonitrile] | 9.84
CC(C)(C)OC(=O)NCc1ccc(OC[C@@H]2CN(c3ccc(C#N)c(C(F)(F)F)c3)[C@@H](C(F)(F)F)O2)cc1 [Example 88] | 926
N#Cc1ccc(N2C[C@@H](COc3ccc(CN)cc3)O[C@@H]2C(F)(F)F)cc1C(F)(F)F [Example 89, 4-((2R,5S)-5-((4-(aminomethyl)phenoxy)methyl)-2-(trifluoromethyl)oxazolidin-3-yl)-2-(trifluoromethyl)benzonitrile hydrochloride] | 34.2
N#Cc1ccc(N2C[C@@H](COc3ccc(NC(=O)CO)cc3)O[C@@H]2C(F)(F)F)cc1C(F)(F)F [Example 94, N-(4-(((2R,5S)-3-(4-cyano-3-(trifluoromethyl)phenyl)-2-(trifluoromethyl)oxazolidin-5-yl)methoxy)phenyl)-2-hydroxyacetamide] | 4.12
N#CCC(=O)Nc1ccc(OC[C@@H]2CN(c3ccc(C#N)c(C(F)(F)F)c3)[C@@H](C(F)(F)F)O2)cc1 [Example 95, 2-cyano-N-(4-(((2R,5S)-3-(4-cyano-3-(trifluoromethyl)phenyl)-2-(trifluoromethyl)oxazolidin-5-yl)methoxy)phenyl)acetamide] | 2.81
N#Cc1ccc(N2C[C@@H](COc3ccc(/C=N/O)cc3[N+](=O)[O-])O[C@@H]2C(F)(F)F)cc1C(F)(F)F [Example 98, 4-((2R,5S)-5-((4-((E)-(hydroxyimino)methyl)-2-nitrophenoxy)methyl)-2-(trifluoromethyl)oxazolidin-3-yl)-2-(trifluoromethyl)benzonitrile] | 2.91
N#Cc1ccc(OC[C@@H]2CN(c3ccc(C#N)c(C(F)(F)F)c3)[C@@H](C(F)(F)F)O2)c([N+](=O)[O-])c1 [Example 99, 4-((2R,5S)-5-((4-cyano-2-nitrophenoxy)methyl)-2-(trifluoromethyl)oxazolidin-3-yl)-2-(trifluoromethyl)benzonitrile] | 97.3
N#Cc1ccc(N2C[C@@H](C(=O)Nc3ccc([N+](=O)[O-])cc3F)O[C@@H]2C(F)(F)F)cc1C(F)(F)F [Example 104] | 24.9
N#Cc1ccc(N2C[C@@H](C(=O)Nc3ccc(N)cc3F)O[C@@H]2C(F)(F)F)cc1C(F)(F)F [Example 105, (2R,5S)-N-(4-amino-2-fluorophenyl)-3-(4-cyano-3-(trifluoromethyl)phenyl)-2-(trifluoromethyl)oxazolidine-5-carboxamide] | 49.9
CC(=O)Nc1ccc(NC(=O)[C@@H]2CN(c3ccc(C#N)c(C(F)(F)F)c3)[C@@H](C(F)(F)F)O2)c(F)c1 [Example 106, (2R,5S)-N-(4-acetamido-2-fluorophenyl)-3-(4-cyano-3-(trifluoromethyl)phenyl)-2-(trifluoromethyl)oxazolidine-5-carboxamide] | 154
N#Cc1ccc(N2C[C@@H](C(=O)Nc3ccncc3)O[C@@H]2C(F)(F)F)cc1C(F)(F)F [Example 107, (2R,5S)-3-(4-cyano-3-(trifluoromethyl)phenyl)-N-(pyridin-4-yl)-2-(trifluoromethyl)oxazolidine-5-carboxamide] | 7.18
N#Cc1ccc(NC(=O)[C@@H]2CN(c3ccc(C#N)c(C(F)(F)F)c3)[C@@H](C(F)(F)F)O2)cn1 [Example 108, (2R,5S)-3-(4-cyano-3-(trifluoromethyl)phenyl)-N-(6-cyanopyridin-3-yl)-2-(trifluoromethyl)oxazolidine-5-carboxamide] | 17
CC(=O)Nc1ccc(NC(=O)[C@@H]2CN(c3ccc(C#N)c(C(F)(F)F)c3)[C@@H](C(F)(F)F)O2)cc1 [Example 109, (2R,5S)-N-(4-acetamidophenyl)-3-(4-cyano-3-(trifluoromethyl)phenyl)-2-(trifluoromethyl)oxazolidine-5-carboxamide] | 5.09
N#Cc1ccc(N2C[C@@H](C(=O)Nc3cccnc3)O[C@@H]2C(F)(F)F)cc1C(F)(F)F [Example 110, (2R,5S)-3-(4-cyano-3-(trifluoromethyl)phenyl)-N-(pyridin-3-yl)-2-(trifluoromethyl)oxazolidine-5-carboxamide] | 80
N#Cc1ccc(NC(=O)[C@@H]2CN(c3ccc(C#N)c(C(F)(F)F)c3)[C@@H](C(F)(F)F)O2)cc1 [Example 138, (2R,5S)-3-(4-cyano-3-(trifluoromethyl)phenyl)-N-(4-cyanophenyl)-2-(trifluoromethyl)oxazolidine-5-carboxamide] | 17.3
